Patent publication US20090220614A1, “Thermo-Responsive Block Co-Polymers, and Use Thereof” (The Trustees of the University of Pennsylvania, priority 2005, published 2009)

Assay: Release of doxorubicin from OPA215 vesicles, dialysis cassette in PBS, 485 nm absorption
Assay type: physicochemical
Conditions: 37° C., within 2 hours
Method: The Dox-loaded vesicles were centrifuged at 40° C. to remove excess free Dox and resuspended into a 0.320 osM PBS solution at ° C. Then, 3 ml of the aforementioned solution was injected into a dialysis cassette (molecular weight cut-off 3000 g mol^−1), and dialyzed against the PBS solution at 37° C. for 6 hours to ensure complete removal of any free Dox outside of the vesicles. After the initial aliquot was taken, the cassette was immersed in a 300 ml PBS solution at 37° and 27° C., respectively, for monitoring the 485 nm absorption peak of Dox using UV-vis spectrometry. At time intervals, a 3 ml aliquot of the PBS solution was sampled from the external solution of the dialysis cassette.
To study thermally triggered release of Dox from the OPA215 vesicles in PBS solutions, vesicles and control samples were entrapped in dialysis cassettes and sampled in external PBS solutions for the 485 nm absorption peak of Dox at different time intervals (FIG. 9).

For COc1cccc2c1C(=O)c1c(O)c3c(c(O)c1C2=O)C[C@@](O)(C(=O)CO)C[C@@H]3O[C@H]1C[C@H](N)[C@H](O)[C@H](C)O1 [free Dox, Doxorubicin], the “loss of Dox during dialysis” value was over 70%.
